Each structure is given as a SMILES string. Where two headings read alike, the source gives them in different places.

As usually defined, the IC50 is the concentration that gives 50% inhibition.

In one test the target is T1, AKT1 WT (Homo sapiens, UniProt P31749).
T1 construct: expressed in transfected cells; host or cells: HEK293
The test is described as follows: Live cell AKT1 WT target engagement by NanoBRET competitive probe displacement in HEK293 cells. Particulars: 2 h at 37° C., read-out: AKT1 WT IC50. Type of test: binding. In general terms: Bioluminescence resonance energy transfer reports proximity on the nanometre scale.

In another test the target is T2, AKT2 (Homo sapiens, UniProt P31751).
T2 construct: expressed in transfected cells; host or cells: HEK293
T2 sequence (P31751 whole entry): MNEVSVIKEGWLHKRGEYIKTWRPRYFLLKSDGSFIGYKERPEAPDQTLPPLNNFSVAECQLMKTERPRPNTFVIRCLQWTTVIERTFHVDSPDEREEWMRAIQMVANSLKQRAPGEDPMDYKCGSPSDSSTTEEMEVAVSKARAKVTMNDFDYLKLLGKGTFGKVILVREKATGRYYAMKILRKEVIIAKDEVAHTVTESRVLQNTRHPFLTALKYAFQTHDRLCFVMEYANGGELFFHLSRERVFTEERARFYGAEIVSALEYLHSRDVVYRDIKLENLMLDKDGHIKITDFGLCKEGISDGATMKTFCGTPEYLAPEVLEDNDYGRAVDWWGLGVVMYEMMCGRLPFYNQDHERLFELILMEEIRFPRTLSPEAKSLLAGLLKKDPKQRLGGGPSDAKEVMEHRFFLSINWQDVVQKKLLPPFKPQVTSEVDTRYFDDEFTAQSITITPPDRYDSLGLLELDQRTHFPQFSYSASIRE
The test is described as follows: Live cell AKT2 target engagement by NanoBRET competitive probe displacement in HEK293 cells. Particulars: 2 h at 37° C., read-out: AKT2 IC50. Format: binding.

Setting [1] is: NanoBRET live cell target engagement, HEK293 cells.
Setting [2] is: NanoBRET competitive probe displacement, live HEK293 cells.

T1 sequence (P31749 whole entry): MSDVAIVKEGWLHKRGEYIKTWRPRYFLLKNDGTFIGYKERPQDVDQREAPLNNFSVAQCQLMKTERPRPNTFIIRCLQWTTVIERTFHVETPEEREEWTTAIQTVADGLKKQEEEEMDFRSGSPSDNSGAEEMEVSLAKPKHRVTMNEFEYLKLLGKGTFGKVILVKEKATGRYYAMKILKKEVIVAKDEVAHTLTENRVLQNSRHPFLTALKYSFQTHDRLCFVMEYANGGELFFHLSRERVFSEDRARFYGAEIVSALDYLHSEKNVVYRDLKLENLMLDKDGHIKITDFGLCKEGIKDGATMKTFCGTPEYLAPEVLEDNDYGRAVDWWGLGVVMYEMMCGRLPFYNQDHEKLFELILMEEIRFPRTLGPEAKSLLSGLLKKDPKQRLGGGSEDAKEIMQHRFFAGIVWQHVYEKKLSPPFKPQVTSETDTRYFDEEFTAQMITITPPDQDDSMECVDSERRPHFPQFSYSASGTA

For `CC(=O)Nc1ccc(C(=O)N[C@H]2CCc3cc(-n4c(-c5cccnc5N)nc5ccc(-n6cccn6)nc54)ccc32)cc1F` [Compound 309], the IC50 at AKT1 WT (setting [1]) came out at 10.8 nM; on AKT2 (setting [1]), 8.38 nM.

Regarding `Nc1ncccc1-c1nc2ccc(-n3cccn3)nc2n1-c1ccc2c(c1)CC[C@@H]2NC1CCc2cc(O)ccc21` (stereo partly shown) [Compound 498], the IC50 was 43 nM on AKT1 WT (setting [2]) and 620 nM at AKT2 (setting [2]).

Take `COc1cc(-n2cccn2)nc2c1nc(-c1cccnc1N)n2-c1ccc2c(c1)CC[C@@H]2NC(=O)c1ccc(C(F)F)nc1` [Compound 122, (S)—N-(5-(2-(2-aminopyridin-3-yl)-7-methoxy-5-(1H-pyrazol-1-yl)-3H-imidazo[4,5-b]pyridin-3-yl)-2,3-dihydro-1H-inden-1-yl)-6-(difluoromethyl)nicotinamide]: the IC50 came to 10.6 nM on AKT1 WT (setting [1]) and 34.6 nM at AKT2 (setting [1]).

As for `CN1CC(Oc2ccn(-c3ccc4nc(-c5cccnc5N)n(-c5ccc6c(c5)CC[C@@H]6NC5CCN(C(=O)C6CC6)CC5)c4n3)n2)C1` [Compound 566], the figures for the IC50 at AKT1 WT (setting [2]) and at AKT2 (setting [2]) were 10.5 nM and 246 nM, respectively.

For the molecule `Cc1ccc(C(=O)N[C@H]2CCc3cc(-n4c(-c5cccnc5N)nc5ccc(C#CC6CC6)nc54)ccc32)cn1` [Compound 435], the IC50 at AKT1 WT (setting [2]) was determined as 19.6 nM; at AKT2 (setting [2]), 1390 nM.

`Nc1ncccc1-c1nc2ccc(-n3cccn3)nc2n1-c1ccc2c(c1)CC[C@@H]2NC(=O)N1CCOCC1` [Compound 27, (S)—N-(5-(2-(2-aminopyridin-3-yl)-5-(1H-pyrazol-1-yl)-3H-imidazo[4,5-b]pyridin-3-yl)-2,3-dihydro-1H-inden-1-yl)morpholine-4-carboxamide]: the values for the IC50 at AKT1 WT (setting [1]) and on AKT2 (setting [1]) were above 1000 nM and above 10000 nM, respectively.

Regarding `Nc1ncccc1-c1nc2ccc(-n3ccc(C4CC4)n3)nc2n1-c1ccc2c(c1)CC[C@@H]2NC1CCN(C(=O)C2CC2)CC1` [Compound 442], the IC50 on AKT1 WT (setting [2]) is 72.6 nM; at AKT2 (setting [2]), 1600 nM.

Regarding `Nc1ncccc1-c1nc2ccc(-n3nccn3)nc2n1-c1ccc2c(c1)CC[C@@H]2NC(=O)c1cnc(C(F)F)o1` [Compound 538], the IC50 on AKT1 WT (setting [2]) came out at 25.1 nM; on AKT2 (setting [2]) it was 2910 nM.

As to `Nc1ncccc1-c1nc2ccc(-n3cccn3)nc2n1-c1ccc2c(c1)CC[C@@H]2NC(=O)c1ccnc(C#Cc2ccccc2)c1` [Compound 209], the half-maximal inhibitory concentration (IC50) at AKT1 WT (setting [1]) was 37.7 nM; on AKT2 (setting [1]), 316 nM.

Turning to `CC(=O)Nc1ccc(C(=O)N[C@H]2CCc3cc(-n4c(-c5cccnc5N)nc5ccc(-n6cccn6)nc54)ccc32)cn1` [Compound 232], the IC50 on AKT1 WT (setting [1]) amounted to 13.5 nM; at AKT2 (setting [1]) it was 46.6 nM.

As for `Nc1ncccc1-c1nc2ccc(-n3cccn3)nc2n1-c1ccc2c(c1)CC[C@@H]2NC(=O)c1ccc2[nH][nH]c(=O)c2c1` [Compound 189], the values for the IC50 at AKT1 WT (setting [1]) and at AKT2 (setting [1]) were 554 nM and 2850 nM, respectively.

For the molecule `Nc1ncccc1-c1nc2ccc(-n3nccn3)nc2n1-c1ccc2c(c1)CC[C@@H]2NC(=O)c1cnc(C2CC2)s1` [Compound 520], the IC50 was found to be 9.92 nM at AKT1 WT (setting [2]) and 198 nM on AKT2 (setting [2]).

`Nc1ncccc1-c1nc2ccc(-n3cccn3)nc2n1-c1ccc2c(c1)CC[C@@H]2NC(=O)c1cccnc1OC(F)(F)F` [Compound 78]: the IC50 was 106 nM at AKT1 WT (setting [1]) and 1910 nM at AKT2 (setting [1]).

Consider `CN(CC1CC1)[C@H]1CCc2cc(-n3c(-c4cccnc4N)nc4ccc(-n5cccn5)nc43)ccc21` [Compound 437], for which the IC50 at AKT1 WT (setting [2]) turned out to be 80.7 nM; on AKT2 (setting [2]) it was 1570 nM.

Turning to `Cc1ccc(C(=O)N[C@H]2CCc3cc(-n4c(-c5cccnc5N)nc5ccc(-c6ccn(C(F)F)n6)nc54)ccc32)cn1` [Compound 73], the IC50 at AKT1 WT (setting [1]) was 9.03 nM; on AKT2 (setting [1]), 49.8 nM.

For the molecule `Cc1ccc(C(=O)N[C@H]2CCc3cc(-n4c(-c5cccnc5N)nc5ccc(-n6cncn6)nc54)ccc32)cn1` [Compound 346], the IC50 on AKT1 WT (setting [1]) was 24.7 nM; on AKT2 (setting [1]), 987 nM.

For the molecule `Nc1ncccc1-c1nc2ccc(-n3cccn3)nc2n1-c1ccc2c(c1)CC[C@@H]2NC1CCN(C(=O)C2CC2)C1` (stereo partly shown) [Compound 461], the IC50 stood at 109 nM on AKT1 WT (setting [2]) and 3030 nM at AKT2 (setting [2]).

The record behind these values is patent publication US12624034B2, “Non-covalent modifiers of AKT1 and uses thereof” (Terremoto Biosciences, Inc., priority 2023, dated 2026).
